Values of other authors as cited in patent US20020042084A1, “Detection of NAALADase inhibitors” (Boehringer Ingelheim Pharma KG, priority 2000, published 2002).
Residues, ends and D or L forms follow the SMILES beside them.

Test system: NAALADase
Settings: substrate specificity; Serval et al. 1992

| hydrolysis by NAALADase | SMILES |
| --- | --- |
| not hydrolyzed | CC(=O)NC(CC(=O)O)C(=O)NC(CCC(=O)O)C(=O)O [D-NAAG] (Ac-Asp-Glu-OH; configuration not given here) |
| not hydrolyzed | CC(=O)N[C@@H](CC(=O)N[C@@H](CCC(=O)O)C(=O)O)C(=O)O [β-NAAG] |

| SMILES | hydrolysis by NAALADase |
| --- | --- |
| C[C@H](N)C(=O)N[C@@H](CCC(=O)O)C(=O)O [Ala-Glu] (H-Ala-Glu-OH) | not hydrolyzed |
